Assay results taken from US20240327392A1, “HETEROCYCLOALKYL-SUBSTITUTED POLYHETEROAZOLE DERIVATIVES AS MEDICAMENTS FOR TREATING AND/OR PREVENTING RS VIRUS INFECTIONS” (ALBIUS SCIENCES ALPHA PRIVATE LIMITED, priority 2021, published 2024).
Read-outs that look alike come from different tables or passages of the source.

System: human RS virus A2 strain
Assay: In vitro test for anti-RS virus proliferation inhibitory activity (quantitative RT-PCR of RS virus RNA copy number in infected Vero cells)
Format: cell-based
Conditions: 72 h, Vero cells infected with human RS virus A2 strain, 3 days of incubation, read-out: Anti-RS virus Activity
Procedure, shortened: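 Vero cells infected with RSV A2 (1.7×10^4 TCID50/mL in inoculum mix) with compound in 10% FCS EMEM, 3 days at 37 °C, 5% CO2. Lysate viral N-gene RNA quantified by one-step SYBR qRT-PCR; copy number by comparative Ct relative to untreated infected cells.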

[1] = RS virus N gene RNA copy number by quantitative RT-PCR
[2] = RS virus RNA copy number by quantitative RT-PCR

IC50 [1] [µM]	IC50 [2] [µM]	Structure (SMILES)
–	< 10	O=S(=O)(c1ccc(F)cc1)N1C[C@H](F)C[C@H]1c1nc(CCCc2ccccc2)no1 [Compound 8AJ, 5-((2S,4R)-4-fluoro-1-((4-fluorophenyl)sulfonyl)pyrrolidin-2-yl)-3-(3-phenylpropyl)-1,2,4-oxadiazole]
–	< 10	O=S(=O)(C1CCOCC1)N1C[C@H](c2ccccc2)C[C@H]1c1nc(CCCc2ccccc2)no1 [Compound 7AP, 5-((2S,4S)-4-phenyl1-((tetrahydro-2H-pyran-4-yl)sulfonyl)pyrrolidin-2-yl)-3-(3-phenylpropyl)-1,2,4-oxadiazole]
–	< 10	Cc1sc([C@@H]2CCCCN2S(=O)(=O)C2CCCCC2)nc1C(=O)NCc1ccccc1 [Compound 37B, (S)—N-Benzyl-2-(1-(cyclohexylsulfonyl)piperidin-2-yl)-5-methylthiazole-4-carboxamide]
–	10 to 50	O=S(=O)(N1CCCCC1)N1[C@@H]2CC[C@@H](C2)[C@H]1c1nnc(CCc2ccncc2)[nH]1 [Compound 25AD, (1R,3S,4S)-2-(piperidine-1-ylsulfonyl)-3-(5-(2-(pyridin-4-yl)ethyl)-4H-1,2,4-triazol-3-yl)-2-azabicyclo[2.2.1]heptane]
–	10 to 50	CC(C)(C)OC(=O)N1[C@@H]2CC[C@@H](C2)[C@H]1c1nnc(Cc2c[nH]c3ccccc23)[nH]1 [Compound 24-1, Tert-butyl (1R,3S,4S)-3-(5-((1H-indol-3-yl)methyl)-4H-1,2,4-triazol-3-yl)-2-azabicyclo[2.2.1]heptane-2-carboxylate]
–	10 to 50	O=S(=O)(c1ccccc1)N1C[C@H](F)C[C@H]1c1nc(CCCc2ccccc2)no1 [Compound 8D, 3-(3-phenylpropyl)-5-[(2S,4R)-1-benzenesulfonyl-4-fluoropyrrolidin-2-yl]-1,2,4-oxadiazole]
–	< 10	O=S(=O)(c1ccc(F)cc1)N1C[C@H](c2ccccc2)C[C@H]1c1nc(CCCc2ccccc2)no1 [Compound 7AJ]
–	10 to 50	O=C(NCc1noc([C@@H]2CCCN2S(=O)(=O)C2CCCCC2)n1)c1cccc2ccccc12 [Compound 11B, 3-[(1-naphthoylamino)methyl]-5-[(2S)-1-cyclohexylsulfonylpyrrolidin-2-yl]-1,2,4-oxadiazole]
–	< 10	O=S(=O)(Cc1ccccc1)N1C[C@H](F)C[C@H]1c1nc(CCCc2ccccc2)no1 [Compound 8E, 3-(3-phenylpropyl)-5-[(2S,4R)-1-benzylsulfonyl-4-fluoropyrrolidin-2-yl]-1,2,4-oxadiazole]
–	10 to 50	CC(C)(C)OC(=O)N1CCCC[C@H]1c1nc(CC(=O)Nc2ccccc2)no1 [Compound 23-1, Tert-butyl (S)-2-(3-(2-oxo-2-(phenylamino)ethyl)-1,2,4-oxadiazol-5-yl)piperidine-1-carboxylate]
–	10 to 50	O=S(=O)(C1CCCCC1)N1[C@@H]2CC[C@@H](C2)[C@H]1c1nnc(CCc2ccncc2)[nH]1 [Compound 29B, (1R,3S,4S)-2-(cyclohexylsulfonyl)-3-(5-(2-(pyridin-4-yl)ethyl)-4H-1,2,4-triazol-3-yl)-2-azabicyclo[2.2.1]heptane]
–	10 to 50	O=C(NCc1noc([C@@H]2C[C@@H](c3ccccc3)CN2S(=O)(=O)c2ccc(F)cc2)n1)c1cnc2ccccc2c1 [Compound 46AJ, N-((5-((2S,4S)-1-((4-fluorophenyl)sulfonyl)-4-phenylpyrrolidin-2-yl)-1,2,4-oxadiazol-3-yl)methyl)quinoline-3-carboxamide]
–	10 to 50	CC(C)CS(=O)(=O)N1[C@@H]2CC[C@@H](C2)[C@H]1c1nnc(CCc2ccncc2)[nH]1 [Compound 25A, (1R,3S,4S)-2-(isobutylsulfonyl)-3-(5-(2-(pyridin-4-yl)ethyl)-4H-1,2,4-triazol-3-yl)-2-azabicyclo[2.2.1]heptane]
–	< 10	CC(C)(C)OC(=O)N1CCC(S(=O)(=O)N2C[C@H](c3ccccc3)C[C@H]2c2nc(CCCc3ccccc3)no2)CC1 [Compound 7AO]
–	10 to 50	O=C(NCc1cnc2ccccc2c1)N1[C@@H]2CC[C@@H](C2)[C@H]1c1nnc(Cc2c[nH]c3ccccc23)[nH]1 [Compound 24AH]
–	> 50	CC(C)CS(=O)(=O)N1CCCC[C@H]1c1nc(CCc2ccccc2)no1 [Compound 10A, 3-(2-phenylethyl)-5-[(2S)-1-isobutylsulfonylpiperidin-2-yl]-1,2,4-oxadiazole]
–	< 10	CC(C)(C)OC(=O)N1CC(CS(=O)(=O)N2CC3(CC3)C[C@H]2c2nc(CCCc3ccccc3)no2)C1 [Compound 5AM, tert-buthyl (S)-3-(((6-(3-(3-phenylpropyl)-1,2,4-oxadiazole-5-yl)-5-azaspiro[2.4]heptan-5-yl)sulfonyl)methyl)azetidin-1-carboxylate]
–	< 10	O=S(=O)(c1ccc(F)cc1)N1CC2(CC2)C[C@H]1c1nc(CCCc2ccccc2)no1 [Compound 5AJ, (S)-5-(5-((4-fluorophenyl)sulfonyl)-5-azaspiro[2.4]heptan-6-yl)-3-(3-phenylpropyl)-1,2,4-oxadiazole]
–	10 to 50	CC(C)(C)OC(=O)N1C[C@H]2CC[C@]1(c1nc(CCc3ccccc3)no1)CC2 [Compound 15-1, Tert-butyl (1s,4s)-1-(3-phenethyl-1,2,4-oxadiazol-5-yl)-2-azabicyclo[2.2.2]octane-2-carboxylate]

More lines, now with the values behind:

Structure (SMILES)	IC50 [1] [µM]	IC50 [2] [µM]
O=S(=O)(C1CCCCC1)N1CCC[C@H]1c1nc(CCCc2ccccc2)no1 [Compound 1B, 3-(3-phenylpropyl)-5-[(2S)-1-cyclohexylsulfonylpyrrolidin-2-yl]-1,2,4-oxadiazole]	10 to 50	–
O=S(=O)(c1ccccc1)N1CCC[C@H]1c1nc(CCCc2ccccc2)no1 [Compound 1D, 3-(3-phenylpropyl)-5-[(2S)-1-benzenesulfonylpyrrolidin-2-yl]-1,2,4-oxadiazole]	10 to 50	–
O=C(Cc1ccccc1)N1CCCC[C@H]1c1nc(CCCc2ccccc2)no1 [Compound 2P, (S)-2-Phenyl-1-(2-(3-(3-phenylpropyl)-1,2,4-oxadiazol-5-yl)piperidin-1-yl)ethan-1-one]	–	< 10
CC(C)OC(=O)N1CCC[C@H]1c1nc(CCCc2ccccc2)no1 [Compound 1L, Isopropyl (S)-2-(3-(3-phenylpropyl)-1,2,4-oxadiazol-5-yl) pyrrolidine-1-carboxylate]	–	10 to 50
CC(C)(C)NC(=O)N1CCC[C@H]1c1nc(CCCc2ccccc2)no1 [Compound 1H, (S)—N-(tert-butyl)-2-(3-(3-phenylpropyl)-1,2,4-oxadiazol-5-yl) pyrrolidine-1-carboxamide]	–	> 50
O=C(c1ccccc1)N1CCCC[C@H]1c1nc(CCCc2ccccc2)no1 [Compound 2S, (S)-Phenyl(2-(3-(3-phenylpropyl)-1,2,4-oxadiazol-5-yl)piperidin-1-yl)methanone]	–	< 10
CC(C)(C)S(=O)(=O)N1CCCC[C@H]1c1nc(CCCc2ccccc2)no1 [Compound 2X, (S)-5-(1-(tert-butylsulfonyl)piperidin-2-yl)-3-(3-phenylpropyl)-1,2,4-oxadiazole]	–	< 10
CCOC(=O)C1CCN(S(=O)(=O)N2CCCC[C@H]2c2nc(CCCc3ccccc3)no2)CC1 [Compound 2AC, Ethyl (S)-1-((2-(3-(3-phenylpropyl)-1,2,4-oxadiazol-5-yl)piperidin-1-yl)sulfonyl)piperidine-4-carboxylate]	–	10 to 50
CC(C)(C)O[C@@H]1C[C@@H](c2nc(CCCc3ccccc3)no2)N(S(=O)(=O)C2CCCCC2)C1 [Compound 4B, 3-(3-phenylpropyl)-5-[(2S,4R)-4-tert-butoxy-1-cyclohexylsulfonyl-pyrrolidin-2-yl]-1,2,4-oxadiazole]	< 10	–
CS(=O)(=O)N1CCC[C@H]1c1nc(CCCc2ccccc2)no1 [Compound 1C, 3-(3-phenylpropyl)-5-[(2S)-1-methanesulfonylpyrrolidin-2-yl]-1,2,4-oxadiazole]	> 50	–
O=S(=O)(N1CCOCC1)N1CCCC[C@H]1c1nc(CCCc2ccccc2)no1 [Compound 2AE, (S)-4-((2-(3-(3-phenylpropyl)-1,2,4-oxadiazol-5-yl)piperidin-1-yl)sulfonyl)morpholine]	–	< 10
O=C(N1CCC[C@H]1c1nc(CCCc2ccccc2)no1)C(F)(F)F [1C′, 3-(3-phenylpropyl)-5-[(2S)-1-trifluoroacetylpyrrolidin-2-yl]-1,2,4-oxadiazole]	< 10	–
O=C(c1ccccc1)N1CCC[C@H]1c1nc(CCCc2ccccc2)no1 [Compound 1S, (S)-Phenyl(2-(3-(3-phenylpropyl)-1,2,4-oxadiazol-5-yl)pyrrolidin-1-yl)methanone]	–	< 10
CC(=O)N1CCCC[C@H]1c1nc(CCCc2ccccc2)no1 [Compound 2R]	–	10 to 50
c1ccc(CCCc2noc([C@@H]3CCCCN3CCc3ccccc3)n2)cc1 [Compound 2AB, (S)-5-(1-phenethylpiperidin-2-yl)-3-(3-phenylpropyl)-1,2,4-oxadiazole]	–	10 to 50
O=S(=O)(N1CCCC[C@H]1c1nc(CCCc2ccccc2)no1)C12CC3CC(CC(C3)C1)C2 [Compound 2AG, 5-((S)-1-((adamantan-1-yl)sulfonyl)piperidin-2-yl)-3-(3-phenylpropyl)-1,2,4-oxadiazole]	–	10 to 50
CC(C)CC(=O)N1CCC[C@H]1c1nc(CCCc2ccccc2)no1 [Compound 1Q, (S)-3-Methyl-1-(2-(3-(3-phenylpropyl)-1,2,4-oxadiazol-5-yl)pyrrolidin-1-yl) butan-1-one]	–	< 10
O=S(=O)(C1CCCCC1)N1CCCC[C@H]1c1nc(CCCc2ccccc2)no1 [Compound 2B, 3-(3-phenylpropyl)-5-[(2S)-1-cyclohexylsulfonylpiperidin-2-yl]-1,2,4-oxadiazole]	< 10	–
CC(C)(C)OC(=O)N1CCC[C@H]1c1nc(CCCc2ccccc2)no1 [Compound 1-1, 3-(3-phenylpropyl)-5-[(2S)-1-tert-butoxycarbonylpyrrolidin-2-yl]-1,2,4-oxadiazole]	> 50	–
